Series [1] deals with six prioritized vascular targets (VEGFR2, TIE2, CCL2, PAI-1, CXCL10, uPAR). Nature of the series: Vascular bioactivity score (VBS): weighted sum of activity across 23 ToxCast assays. Further details: species or system human.
In series [2] the test system is pregnant rabbits. Conditions: cited from earlier work.
Series [3] concerns pregnant rats. Particulars: cited from earlier work.
The target of series [4] is VEGFR2 (Homo sapiens, UniProt P35968). Description: VEGFR2 biochemical assay.
Series [5] deals with PTEN (Homo sapiens, UniProt P60484). Description: PTEN biochemical assay.
The target in series [6] is VEGFR3 (Homo sapiens, UniProt P35916). Description: VEGFR3 biochemical assay.
Series [7] concerns the target PI3Ka (Homo sapiens, UniProt P42336). Description: PI3Ka biochemical assay.
In series [8] the target is TIE2 (Homo sapiens, UniProt Q02763). Nature of the series: TIE2 cell-free biochemical assay.
Text: Assays measured direct interactions between chemicals and molecular targets (receptors, enzymes), as well as downstream effects on reporter gene activity or cellular consequences. […] The perturbation scores are a method of aggregating assays into groups and providing a higher-level view of chemical activity across important signaling pathways.
The chemical library was run against these assays, as was a repeat of the TIE2 assay from the original data series (Table 2).
Setting [9] is: pVDCs with rabbit-specific effects.
Setting [10] is: rabbit-specific effects in ToxRefDB prenatal studies, ref U.S. EPA 2010b.
Where [11] appears, read: pVDCs with rat-specific effects.
Setting [12] is: rat-specific effects in ToxRefDB prenatal studies, ref U.S. EPA 2010b.
Where [13] appears, read: ranking of 309 phase I chemicals, mean cutoff for pVDC.

Where two headings read alike, the source gives them in different places.

Sequence of PTEN (P60484 whole entry, species assumed): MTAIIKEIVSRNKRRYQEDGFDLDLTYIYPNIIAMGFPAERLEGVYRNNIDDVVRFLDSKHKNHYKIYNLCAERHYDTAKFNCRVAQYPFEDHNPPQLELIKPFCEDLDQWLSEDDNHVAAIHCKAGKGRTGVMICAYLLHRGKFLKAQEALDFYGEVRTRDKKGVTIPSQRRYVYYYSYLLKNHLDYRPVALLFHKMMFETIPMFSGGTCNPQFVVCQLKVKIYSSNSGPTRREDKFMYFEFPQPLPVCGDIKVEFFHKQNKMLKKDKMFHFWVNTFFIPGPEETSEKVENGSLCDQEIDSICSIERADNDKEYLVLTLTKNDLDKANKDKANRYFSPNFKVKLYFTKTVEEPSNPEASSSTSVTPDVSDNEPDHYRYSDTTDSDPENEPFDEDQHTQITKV
Sequence of PI3Ka (P42336 whole entry): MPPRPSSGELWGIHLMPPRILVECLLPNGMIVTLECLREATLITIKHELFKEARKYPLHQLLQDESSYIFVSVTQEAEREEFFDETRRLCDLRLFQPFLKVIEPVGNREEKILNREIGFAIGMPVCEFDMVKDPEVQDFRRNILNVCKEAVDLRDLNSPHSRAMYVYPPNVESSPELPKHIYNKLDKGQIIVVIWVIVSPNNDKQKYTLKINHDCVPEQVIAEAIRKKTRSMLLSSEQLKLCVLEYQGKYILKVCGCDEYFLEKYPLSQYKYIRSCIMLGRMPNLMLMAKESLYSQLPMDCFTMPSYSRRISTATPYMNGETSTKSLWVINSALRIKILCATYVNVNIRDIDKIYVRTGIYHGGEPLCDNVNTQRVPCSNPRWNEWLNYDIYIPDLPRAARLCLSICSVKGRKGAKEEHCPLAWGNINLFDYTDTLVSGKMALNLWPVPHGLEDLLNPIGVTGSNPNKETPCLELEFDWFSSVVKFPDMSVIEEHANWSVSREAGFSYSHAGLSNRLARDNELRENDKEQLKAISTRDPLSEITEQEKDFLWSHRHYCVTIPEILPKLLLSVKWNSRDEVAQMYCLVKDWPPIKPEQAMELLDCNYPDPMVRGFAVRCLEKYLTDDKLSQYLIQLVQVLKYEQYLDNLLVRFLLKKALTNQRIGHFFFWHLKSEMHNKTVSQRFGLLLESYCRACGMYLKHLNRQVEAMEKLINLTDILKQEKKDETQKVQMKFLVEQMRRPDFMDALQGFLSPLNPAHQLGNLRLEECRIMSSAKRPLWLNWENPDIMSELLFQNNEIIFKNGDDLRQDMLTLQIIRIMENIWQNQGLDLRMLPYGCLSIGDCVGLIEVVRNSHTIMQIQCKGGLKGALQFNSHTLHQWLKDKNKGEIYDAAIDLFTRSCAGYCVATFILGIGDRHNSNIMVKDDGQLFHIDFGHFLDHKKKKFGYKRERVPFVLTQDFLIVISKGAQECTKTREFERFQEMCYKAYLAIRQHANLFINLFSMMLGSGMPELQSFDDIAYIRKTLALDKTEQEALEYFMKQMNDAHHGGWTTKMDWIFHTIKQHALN
Sequence of PI3Ka (P27986 whole entry partner): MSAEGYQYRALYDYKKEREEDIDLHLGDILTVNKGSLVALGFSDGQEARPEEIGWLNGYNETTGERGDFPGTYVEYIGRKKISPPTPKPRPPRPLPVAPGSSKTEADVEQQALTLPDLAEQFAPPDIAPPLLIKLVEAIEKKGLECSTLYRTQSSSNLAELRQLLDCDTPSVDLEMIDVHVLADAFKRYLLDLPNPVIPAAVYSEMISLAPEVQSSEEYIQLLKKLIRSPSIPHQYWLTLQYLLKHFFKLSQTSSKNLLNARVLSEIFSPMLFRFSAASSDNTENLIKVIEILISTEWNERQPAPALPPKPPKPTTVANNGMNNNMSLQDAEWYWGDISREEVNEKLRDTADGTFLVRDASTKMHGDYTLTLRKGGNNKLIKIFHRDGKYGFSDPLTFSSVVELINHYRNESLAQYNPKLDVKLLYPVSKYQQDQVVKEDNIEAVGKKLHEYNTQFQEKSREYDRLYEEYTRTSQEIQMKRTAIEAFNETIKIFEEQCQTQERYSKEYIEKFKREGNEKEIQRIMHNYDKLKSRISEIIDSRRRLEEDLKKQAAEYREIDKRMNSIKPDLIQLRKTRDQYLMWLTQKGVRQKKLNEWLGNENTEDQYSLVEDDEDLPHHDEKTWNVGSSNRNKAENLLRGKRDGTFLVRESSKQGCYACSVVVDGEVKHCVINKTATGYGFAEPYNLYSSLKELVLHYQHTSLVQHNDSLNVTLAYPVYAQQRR
Sequence of VEGFR3 (P35916 25-1363, species assumed): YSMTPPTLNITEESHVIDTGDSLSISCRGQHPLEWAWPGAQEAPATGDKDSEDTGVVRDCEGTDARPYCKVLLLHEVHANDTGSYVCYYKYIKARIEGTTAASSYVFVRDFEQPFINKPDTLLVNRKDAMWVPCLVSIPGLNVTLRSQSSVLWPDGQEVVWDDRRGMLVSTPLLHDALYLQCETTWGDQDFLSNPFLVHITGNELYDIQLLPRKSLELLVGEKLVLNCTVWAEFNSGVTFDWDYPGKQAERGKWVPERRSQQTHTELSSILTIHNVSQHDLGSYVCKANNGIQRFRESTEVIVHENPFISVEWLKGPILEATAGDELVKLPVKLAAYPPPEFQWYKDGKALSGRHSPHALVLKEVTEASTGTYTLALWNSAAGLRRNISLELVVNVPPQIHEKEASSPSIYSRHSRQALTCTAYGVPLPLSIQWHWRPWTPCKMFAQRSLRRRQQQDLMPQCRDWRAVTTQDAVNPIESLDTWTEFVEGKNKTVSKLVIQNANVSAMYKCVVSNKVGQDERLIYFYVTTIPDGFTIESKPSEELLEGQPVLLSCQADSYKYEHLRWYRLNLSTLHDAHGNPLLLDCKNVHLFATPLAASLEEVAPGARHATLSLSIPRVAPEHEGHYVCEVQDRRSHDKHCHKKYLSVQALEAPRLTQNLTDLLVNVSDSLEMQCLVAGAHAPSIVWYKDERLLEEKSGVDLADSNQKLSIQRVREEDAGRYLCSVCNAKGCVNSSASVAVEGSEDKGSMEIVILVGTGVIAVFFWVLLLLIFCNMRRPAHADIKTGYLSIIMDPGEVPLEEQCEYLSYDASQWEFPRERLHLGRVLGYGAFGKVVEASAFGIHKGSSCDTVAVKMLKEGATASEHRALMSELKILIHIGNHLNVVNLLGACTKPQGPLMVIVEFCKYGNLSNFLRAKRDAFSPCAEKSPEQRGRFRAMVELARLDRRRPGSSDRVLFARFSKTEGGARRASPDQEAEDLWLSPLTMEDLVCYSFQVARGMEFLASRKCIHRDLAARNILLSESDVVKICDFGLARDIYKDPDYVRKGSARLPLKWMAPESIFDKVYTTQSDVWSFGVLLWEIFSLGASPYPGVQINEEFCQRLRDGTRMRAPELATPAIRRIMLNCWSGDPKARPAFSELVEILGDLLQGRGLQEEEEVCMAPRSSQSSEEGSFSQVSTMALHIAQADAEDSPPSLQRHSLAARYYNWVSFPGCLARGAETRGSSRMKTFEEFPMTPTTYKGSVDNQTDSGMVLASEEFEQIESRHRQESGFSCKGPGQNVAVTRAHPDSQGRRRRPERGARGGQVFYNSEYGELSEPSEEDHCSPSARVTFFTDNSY
Sequence of VEGFR2 (P35968 20-1356, species assumed): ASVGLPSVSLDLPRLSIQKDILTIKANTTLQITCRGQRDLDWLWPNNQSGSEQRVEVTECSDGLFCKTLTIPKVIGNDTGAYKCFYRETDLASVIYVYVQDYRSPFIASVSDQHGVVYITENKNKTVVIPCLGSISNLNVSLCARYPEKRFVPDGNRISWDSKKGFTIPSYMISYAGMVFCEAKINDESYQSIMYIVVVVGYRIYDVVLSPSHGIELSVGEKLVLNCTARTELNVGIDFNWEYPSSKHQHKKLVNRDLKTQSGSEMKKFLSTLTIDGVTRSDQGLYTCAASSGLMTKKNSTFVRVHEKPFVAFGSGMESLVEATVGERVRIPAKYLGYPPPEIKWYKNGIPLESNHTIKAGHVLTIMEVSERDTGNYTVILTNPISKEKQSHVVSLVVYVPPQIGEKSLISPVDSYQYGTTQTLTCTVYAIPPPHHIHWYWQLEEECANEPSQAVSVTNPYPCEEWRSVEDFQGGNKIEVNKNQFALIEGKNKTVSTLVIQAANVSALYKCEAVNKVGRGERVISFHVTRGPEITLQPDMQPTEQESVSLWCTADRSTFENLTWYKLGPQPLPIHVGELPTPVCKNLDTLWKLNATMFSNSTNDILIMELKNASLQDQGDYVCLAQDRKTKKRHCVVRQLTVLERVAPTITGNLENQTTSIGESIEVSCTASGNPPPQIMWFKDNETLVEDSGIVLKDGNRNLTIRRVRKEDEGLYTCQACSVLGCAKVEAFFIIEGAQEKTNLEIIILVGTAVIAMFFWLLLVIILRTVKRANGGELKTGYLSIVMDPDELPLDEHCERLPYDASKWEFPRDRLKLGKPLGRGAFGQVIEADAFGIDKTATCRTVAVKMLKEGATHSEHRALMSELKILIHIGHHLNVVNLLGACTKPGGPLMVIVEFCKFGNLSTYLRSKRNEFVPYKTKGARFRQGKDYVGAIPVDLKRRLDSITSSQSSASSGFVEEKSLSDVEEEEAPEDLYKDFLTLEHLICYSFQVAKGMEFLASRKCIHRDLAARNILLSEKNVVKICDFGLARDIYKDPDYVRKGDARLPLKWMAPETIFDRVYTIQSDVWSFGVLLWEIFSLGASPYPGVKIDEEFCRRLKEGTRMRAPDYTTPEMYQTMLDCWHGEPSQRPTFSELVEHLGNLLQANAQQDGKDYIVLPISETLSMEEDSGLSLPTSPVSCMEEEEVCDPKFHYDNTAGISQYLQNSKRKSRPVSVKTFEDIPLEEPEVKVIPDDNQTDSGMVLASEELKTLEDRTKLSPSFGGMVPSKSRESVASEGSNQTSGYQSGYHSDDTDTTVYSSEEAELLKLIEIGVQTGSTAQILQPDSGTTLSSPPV

On to `COP(=O)(OC)SCn1c(=O)oc2cc(Cl)cnc21` [Azamethiphos], for which the VBS in series [1] (setting [9]) is recorded as 3.10. In addition, the Developmental phenotype entry in series [2] (setting [10]) is “Maternal pregnancy loss”.

`FC(F)C(F)(F)OCC(Cn1cncn1)c1ccc(Cl)cc1Cl` (centres unmarked) [Tetraconazole] showed a VBS in series [1] (setting [11]) of 2.23. Moreover, the Developmental phenotype entry in series [3] (rat, in vivo) was “urogenital end points”; in series [3] (setting [12]), “General fetal pathology; skeletal: axial; urogenital: renal, ureteric”.

Turning to `CCc1cccc(C)c1N(C(=O)CCl)C(C)COC` (centres unmarked) [Metolachlor], the VBS in series [1] (setting [11]) came to 1.57. For the same compound, in series [3] (setting [12]), the Developmental phenotype result is reported as “Fetal weight reduction; embryo fetal loss; maternal pregnancy loss”.

Turning to `CON=C(C(=O)OC)c1ccccc1CON=C(C)c1cccc(C(F)(F)F)c1` [Trifloxystrobin], the VBS in series [1] (setting [9]) came to 4.26. The Developmental phenotype entry in series [2] (setting [10]) is recorded as “Skeletal: axial”.

On to `CCOc1cc(C(C)(C)C)ccc1C1COC(c2c(F)cccc2F)=N1` (centres unmarked) [Etoxazole], for which, in series [1] (setting [9]), the VBS is given as 3.66. Also, in series [2] (setting [10]), the Developmental phenotype entry is “Skeletal: axial”.

As for `CS/C(C)=N\OC(=O)N(C)SN(C)C(=O)O/N=C(\C)SC` [Thiodicarb], in series [1] (setting [11]), the VBS turned out to be 2.97. Also, the Developmental phenotype result in series [3] (setting [12]) is reported as “Fetal weight reduction, general fetal pathology; embryo fetal loss; maternal pregnancy loss; skeletal: axial”.

With `CCOC(=O)COc1cc(-n2ncc(C(F)(F)F)c(C)c2=O)c(F)cc1Cl` [Flufenpyr-ethyl], the VBS in series [1] (setting [9]) was 1.73. Further, the Developmental phenotype result in series [2] (setting [10]) was “Maternal pregnancy loss”.

As to `N#Cc1c[nH]cc1-c1cccc2c1OC(F)(F)O2` [Fludioxonil], the VBS in series [1] (setting [11]) is 1.82. Besides, the Developmental phenotype entry in series [3] (setting [12]) is reported as “Urogenital: renal, ureteric”; in series [3] (rat-specific effects in ToxRefDB prenatal studies, ref U.S. EPA 2010b, listed as fludioxonil) it was “urogenital end points”.

As to `N#CSCSC#N` [Methylene bis(thiocyanate)], in series [1] (setting [9]), the VBS was 6.55. Also, in series [2] (setting [10]), the Developmental phenotype result is “Maternal pregnancy loss”.

In series [1] (setting [13]), `CC1(C)C(C=C(Cl)Cl)C1C(=O)OC(C#N)c1ccc(F)c(Oc2ccccc2)c1` (centres unmarked) [cyfluthrin] yielded a VBS of 1.48.

Compound `CC1(C)C(C(=O)OC(C#N)c2cccc(Oc3ccccc3)c2)C1(C)C` (centres unmarked) [Fenpropathrin] registered a VBS in series [1] (setting [11]) of 2.18. In addition, the Developmental phenotype result in series [3] (rat, in vivo) is reported as “Maternal pregnancy loss”.

On to `CO/N=C(/C1=NOCCO1)c1ccccc1Oc1ncnc(Oc2ccccc2Cl)c1F` [Fluoxastrobin], for which the VBS in series [1] (setting [11]) is 2.79. In addition, the Developmental phenotype result in series [3] (setting [12]) is “Skeletal: appendicular”.

`OC(c1ccc(Cl)cc1)(c1ccc(Cl)cc1)C(Cl)(Cl)Cl` [Dicofol] gave a VBS in series [1] (setting [9]) of 1.92. For the same compound, the Developmental phenotype entry in series [2] (setting [10]) is given as “Maternal pregnancy loss”.

With `C=CCOC(=O)C(C)(C)OC(=O)c1cc(-n2c(=O)cc(C(F)(F)F)n(C)c2=O)ccc1Cl` [Butafenacil], the VBS in series [1] (setting [9]) turned out to be 2.94. Also, in series [2] (setting [10]), the Developmental phenotype entry is recorded as “Embryo fetal loss”.

Turning to `C[C@@H]1[C@@H](c2ccc(Cl)cc2)SC(=O)N1C(=O)NC1CCCCC1` [Hexythiazox], the VBS in series [1] (setting [11]) is 2.78. Also, in series [3] (setting [12]), the Developmental phenotype result is on record as “Skeletal: appendicular”.

On to `CCc1cccc(CC)c1N(COC)C(=O)CCl` [Alachlor], for which, in series [1] (setting [11]), the VBS came to 2.97. For the same compound, the Developmental phenotype entry in series [3] (setting [12]) is reported as “Fetal weight reduction; embryo fetal loss”.

In turn, `CCNP(=S)(OC)O/C(C)=C/C(=O)OC(C)C` (centres unmarked) [Propetamphos] gave a VBS in series [1] (setting [9]) of 2.08. Moreover, in series [2] (setting [10]), the Developmental phenotype result is “Embryo fetal loss”.

Turning to `COP(=O)(OC)O/C(C)=C/C(=O)N(C)C` [Dicrotophos], the VBS in series [1] (setting [9]) is given as 1.59.

Take Diniconazole: in series [1] (setting [11]), the VBS is 4.57.

In turn, `Cc1nn(C)c(Oc2ccccc2)c1/C=N/OCc1ccc(C(=O)OC(C)(C)C)cc1` [(Z,E)-Fenpyroximate] displayed a VBS in series [1] (setting [11]) of 3.88. Further, in series [3] (setting [12]), the Developmental phenotype result is reported as “Skeletal: axial”.

For `CCCCOCN(C(=O)CCl)c1c(CC)cccc1CC` [Butachlor], the VBS in series [1] (setting [9]) is listed as 1.99.

As a reminder, the AC50 is the concentration giving half of the maximal activity seen. Turning to `CN(C)[C@@H]1C(O)=C(C(N)=O)C(=O)[C@@]2(O)C(O)=C3C(=O)c4c(O)cccc4[C@@](C)(O)[C@H]3[C@H](O)[C@@H]12` [Oxytetracycline dihydrate, reference compound], the half-maximal activity concentration (AC50) in series [4] was found to be 19 µM; in series [5], 1.6 µM; in series [6] it was 6.5 µM; in series [7], 6.2 µM; in series [8], 15 µM. The VBS in series [1] (ToxCast chemicals of Table 2) is reported as 3.85.

`CCOC(=O)NCCOc1ccc(Oc2ccccc2)cc1` [Fenoxycarb] returned a VBS in series [1] (setting [9]) of 3.60. Besides, in series [2] (setting [10]), the Developmental phenotype entry is listed as “Skeletal: axial”.

`CC1=C(C(=O)Nc2ccccc2)SCCO1` [Carboxin] displayed a VBS in series [1] (setting [9]) of 1.56. For the same compound, in series [2] (setting [10]), the Developmental phenotype entry is listed as “Maternal pregnancy loss”.

In the case of `CCCN(CCC)c1c([N+](=O)[O-])cc(C(F)(F)F)c(N)c1[N+](=O)[O-]` [Prodiamine], the VBS in series [1] (setting [11]) is listed as 2.19. In addition, the Developmental phenotype entry in series [3] (setting [12]) was “Neurosensory: eye”.

For `CCOC(=O)C(C)OC(=O)c1cc(Oc2ccc(C(F)(F)F)cc2Cl)ccc1[N+](=O)[O-]` (centres unmarked) [Lactofen], in series [1] (setting [11]), the VBS is reported as 3.18. In addition, the Developmental phenotype entry in series [3] (setting [12]) is given as “Fetal weight reduction; maternal pregnancy loss; skeletal: appendicular; skeletal: axial”.

Regarding `Oc1ccc(C(c2ccc(O)cc2)C(Cl)(Cl)Cl)cc1` [2,2-bis-(p-Hydroxyphenyl)-1,1,1-trichloroethane], the VBS in series [1] (ToxCast chemicals of Table 2) worked out at 2.28. The same compound displayed a half-maximal activity concentration (AC50) in series [7] of 28 µM.

With `COC(=O)c1c(C(F)F)nc(C(F)(F)F)c(C2=NCCS2)c1CC(C)C` [Thiazopyr], in series [1] (setting [11]), the VBS is 2.00.

With `CN1CSC(=S)N(C)C1` [Dazomet], the VBS in series [1] (setting [9]) was found to be 2.61.

On to `CCOCN(C(=O)CCl)c1c(C)cccc1CC` [Acetochlor], for which the VBS in series [1] (setting [11]) was determined as 2.16.

The compound `CCOc1cc(Oc2ccc(C(F)(F)F)cc2Cl)ccc1[N+](=O)[O-]` [Oxyfluorfen] displayed a VBS in series [1] (setting [9]) of 1.82. Further, in series [2] (setting [10]), the Developmental phenotype entry is “Embryo fetal loss; maternal pregnancy loss”.

Take `CCOc1nc(F)cc2nc(S(=O)(=O)Nc3c(Cl)cccc3Cl)nn12` [Diclosulam]: the AC50 in series [5] (read-out: PTEN AC50) is 50 µM. Further, the VBS in series [1] (ToxCast chemicals of Table 2) and in series [1] (setting [9]) was 2.09 each time. In series [2] (setting [10]), the Developmental phenotype entry is given as “Maternal pregnancy loss”.

For the compound `C#CCC1=C(C)C(OC(=O)C2C(C=C(C)C)C2(C)C)CC1=O` (centres unmarked) [Prallethrin], in series [1] (setting [11]), the VBS stood at 2.11. Besides, the Developmental phenotype result in series [3] (setting [12]) is “Maternal pregnancy loss”.

For the compound `CCC(C)(C)C(=O)OC1=C(c2ccc(Cl)cc2Cl)C(=O)OC12CCCCC2` [Spirodiclofen], the VBS in series [1] (setting [11]) is listed as 3.15. Further, the Developmental phenotype result is “Urogenital: renal” in series [3] (setting [12]) and “urogenital end points” in series [3] (rat-specific effects in ToxRefDB prenatal studies, ref U.S. EPA 2010b, listed as spirodiclofen).

`N#Cc1c(Cl)c(Cl)c(Cl)c(C#N)c1Cl` [Chlorothalonil] yielded a VBS in series [1] (setting [11]) of 3.28. The Developmental phenotype result in series [3] (setting [12]) is given as “Embryo fetal loss; maternal pregnancy loss”.

For the compound `CCCCCOC(=O)COc1cc(N2C(=O)C3=C(CCCC3)C2=O)c(F)cc1Cl` [Flumiclorac-pentyl], the VBS in series [1] (setting [9]) worked out at 2.11. Moreover, the Developmental phenotype entry in series [2] (setting [10]) is “Maternal pregnancy loss”.

For the compound `CCCSP(=O)(OCC)Oc1ccc(Br)cc1Cl` (centres unmarked) [Profenofos], in series [1] (setting [11]), the VBS is given as 1.71. Besides, the Developmental phenotype result in series [3] (setting [12]) was “Maternal pregnancy loss”.

`CC(C)(C)c1ccc(CSc2cnn(C(C)(C)C)c(=O)c2Cl)cc1` [pyridaben] yielded a VBS in series [1] (setting [13]) of 6.9.

Turning to `Cc1ccc(-c2c(Cl)nc(C#N)n2S(=O)(=O)N(C)C)cc1` [Cyazofamid], in series [1] (setting [11]), the VBS is reported as 3.34. Further, in series [3] (setting [12]), the Developmental phenotype result was “Skeletal: axial”.

In turn, `Fc1ccc(Oc2ccnc3cc(Cl)cc(Cl)c23)cc1` [Quinoxyfen] registered a VBS in series [1] (setting [9]) of 3.02. Besides, the Developmental phenotype result in series [2] (rabbit, in vivo) was “Maternal pregnancy loss”.

`C[C@@]1(c2ccc(Oc3ccccc3)cc2)OC(=O)N(Nc2ccccc2)C1=O` (racemic) [Famoxadone] had a VBS in series [1] (setting [9]) of 1.82. The Developmental phenotype entry in series [2] (setting [10]) is on record as “Embryo fetal loss; maternal pregnancy loss”.

`O=C1C2CC=CCC2C(=O)N1SC(Cl)(Cl)Cl` (centres unmarked) [Captan]: in series [5], the AC50 came out at 35 µM. The compound also returned a VBS in series [1] (ToxCast chemicals of Table 2) of 1.14.

Regarding `COP(=O)(OC)OC=C(Cl)Cl` [Dichlorvos], in series [1] (setting [9]), the VBS was 2.34. In series [2] (rabbit, in vivo), the Developmental phenotype result was “Maternal pregnancy loss”.

Consider `CCS(=O)(=O)c1cccnc1S(=O)(=O)NC(=O)Nc1nc(OC)cc(OC)n1` [Rimsulfuron], for which the VBS in series [1] (setting [9]) turned out to be 2.52. The Developmental phenotype result in series [2] (rabbit, in vivo) was “Embryo fetal loss; maternal pregnancy loss”.

In the case of `C#CCOS(=O)OC1CCCCC1Oc1ccc(C(C)(C)C)cc1` (centres unmarked) [Propargite], the VBS in series [1] (setting [9]) stood at 3.79. The Developmental phenotype result in series [2] (setting [10]) is listed as “Skeletal: axial”.

With `COP(=O)(OC)OC(Br)C(Cl)(Cl)Br` (centres unmarked) [Naled], in series [1] (setting [11]), the VBS was determined as 4.22. For the same compound, the Developmental phenotype result in series [3] (setting [12]) is reported as “Embryo fetal loss; trunk: body wall”.

`CCC/C(=N\OCC)C1=C(O)CC(CC(C)SCC)CC1=O` (centres unmarked) [Sethoxydim] gave an AC50 in series [5] of 22 µM. Further, in series [1] (ToxCast chemicals of Table 2), the VBS came to 0.00.

The values are drawn from publication PMC3226499, “Environmental Impact on Vascular Development Predicted by High-Throughput Screening” (Environmental Health Perspectives, 2011).
